Measured values taken from patent US12673946B2, “Pyrimidin-4(3H)-one derivatives as TRPV4 antagonists” (RaQualia Pharma Inc., priority 2020, dated 2026).

Molecular target: T1, human TRPV4 (Homo sapiens, UniProt Q9HBA0)
T1 construct: host or cells: tetracycline-inducible Flp-In T-REx 293 cells
Assay: Hypotonicity-induced Ca2+ influx (Fluo-4, FDSS)
Format: cell-based
In short: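 Flp-In T-REx 293 cells with tetracycline-induced human TRPV4, loaded with Fluo-4 for 60 min at 25 °C. Compound added 5 min before hypotonic mannitol/CaCl2 solution. Ca2+ signal recorded for 4.5 min on FDSS.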

[1] = Flp-In T-REx 293 cells expressing human TRPV4, examples listed under heading 'Human IC50<50 nM'
[2] = Flp-In T-REx 293 cells stably expressing human TRPV4, compounds listed by potency bin (<10 nM Tables 96-1/96-2, <3 nM Table 97)

T1 sequence (Q9HBA0 whole entry): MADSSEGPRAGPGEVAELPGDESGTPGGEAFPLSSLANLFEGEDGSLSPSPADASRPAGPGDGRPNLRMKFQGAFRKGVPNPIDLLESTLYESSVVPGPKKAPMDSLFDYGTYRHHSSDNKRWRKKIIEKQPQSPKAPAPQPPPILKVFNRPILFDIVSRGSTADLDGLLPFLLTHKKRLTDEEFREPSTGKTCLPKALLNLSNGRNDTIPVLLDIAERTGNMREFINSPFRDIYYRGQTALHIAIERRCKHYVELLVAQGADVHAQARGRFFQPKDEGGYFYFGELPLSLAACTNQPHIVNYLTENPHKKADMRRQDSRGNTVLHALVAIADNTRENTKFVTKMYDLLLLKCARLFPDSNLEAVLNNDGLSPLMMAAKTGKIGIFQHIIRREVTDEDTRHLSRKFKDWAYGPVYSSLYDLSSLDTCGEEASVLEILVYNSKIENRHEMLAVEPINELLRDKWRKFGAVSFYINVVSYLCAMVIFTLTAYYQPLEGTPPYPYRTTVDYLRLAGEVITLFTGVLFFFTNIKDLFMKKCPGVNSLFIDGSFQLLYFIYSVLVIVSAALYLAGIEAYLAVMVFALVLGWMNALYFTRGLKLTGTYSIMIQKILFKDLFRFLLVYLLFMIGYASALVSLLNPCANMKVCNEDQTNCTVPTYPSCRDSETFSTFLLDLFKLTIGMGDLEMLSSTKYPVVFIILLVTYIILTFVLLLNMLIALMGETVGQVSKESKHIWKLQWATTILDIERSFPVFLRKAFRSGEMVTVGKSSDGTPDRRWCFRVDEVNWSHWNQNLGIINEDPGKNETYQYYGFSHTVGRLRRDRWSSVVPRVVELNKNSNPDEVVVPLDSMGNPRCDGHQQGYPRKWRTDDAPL

Row | Compound | IC50 [1] | IC50 [2]
1 | O=C([C@H](O)c1cccc(C(F)(F)F)c1)N1CCCc2nc(C3(c4cccc(-c5cnco5)c4)CC3)[nH]c(=O)c2C1 [42-30] | < 50 nM | < 10 nM
2 | CCc1csc(C2(c3nc4c(c(=O)[nH]3)CN(C(=O)[C@H](O)c3cccc(C(F)(F)F)c3)CC4)CC2)c1 [15-5] | < 50 nM | < 10 nM
3 | CC(C)c1cccc(-c2cccc([C@@H](O)C(=O)N3CCCc4nc(C5(c6ccccc6)CC5)[nH]c(=O)c4C3)c2)c1 [49-50] | < 50 nM | < 3 nM
4 | O=C([C@H](O)c1cccc(-c2ccc3ncccc3c2)c1)N1CCc2nc(C3(c4ccccc4)CC3)[nH]c(=O)c2C1 [44-88] | < 50 nM | 
5 | O=C(C(O)c1cccc(-c2cccc(OC(F)(F)F)c2)c1)N1CCCc2nc(C3(c4cccc(F)c4)CC3)[nH]c(=O)c2C1 (stereo not shown) [17-15] | < 50 nM | < 10 nM
6 | CC(C)c1cccc(C2(c3nc4c(c(=O)[nH]3)CN(C(=O)[C@H](O)c3cccc(-c5cccc(Cl)c5)c3)CCC4)CC2)c1 [51-4] | < 50 nM | < 10 nM
7 | O=C([C@H](O)c1cccc(C(F)(F)F)c1)N1CCCc2nc(C3(c4cccc(F)c4)CC3)[nH]c(=O)c2C1 [17-36] | < 50 nM | < 10 nM
8 | O=C(C(O)c1cccc(-c2cccc(OC(F)(F)F)c2)c1)N1CCc2nc(C3(c4cccc(Cl)c4)CC3)[nH]c(=O)c2C1 (stereo not shown) [14-5] | < 50 nM | < 10 nM
9 | CN(C(=O)c1csc(C2(c3nc4c(c(=O)[nH]3)CN(C(=O)[C@H](O)c3cccc(C(F)(F)F)c3)CCC4)CC2)c1)C(C)(C)C [59-19] | < 50 nM | 
10 | Cc1cc(Cl)cc(-c2cccc(C(O)C(=O)N3CCc4nc(C5(c6ccccc6)CC5)[nH]c(=O)c4C3)c2)c1 (stereo not shown) [44-16] | < 50 nM | < 10 nM
11 | O=C([C@H](O)c1cccc(-c2cccc(C(F)(F)F)n2)c1)N1CCCc2nc(C3(c4ccccc4)CC3)[nH]c(=O)c2C1 [49-22] | < 50 nM | < 3 nM
12 | O=C(C(O)c1cccc(-c2cccc(C(F)(F)F)c2)c1)N1CCCc2nc(C3(c4cccc(F)c4)CC3)[nH]c(=O)c2C1 (stereo not shown) [17-14] | < 50 nM | < 10 nM
13 | O=C([C@H](O)c1cccc(Cl)c1)N1CCc2nc(C3(c4ccc(Cl)cc4)CC3)[nH]c(=O)c2C1 [3-21] | < 50 nM | 
14 | O=C(C(O)c1cncc(-c2cccc(Cl)c2)c1)N1CCc2nc(C3(c4ccccc4)CC3)[nH]c(=O)c2C1 (stereo not shown) [48-5] | < 50 nM | < 10 nM
15 | O=C([C@H](O)c1cccc(-c2ccc3cccnc3c2)c1)N1CCc2nc(C3(c4ccccc4)CC3)[nH]c(=O)c2C1 [44-90] | < 50 nM | 
16 | O=C([C@H](O)c1cccc(Cl)c1)N1CCc2nc(C3(c4cncc(C5CCCC5)c4)CC3)[nH]c(=O)c2C1 [25-1] | < 50 nM | < 3 nM
17 | Cc1cc(C)cc(-c2cccc([C@@H](O)C(=O)N3CCCc4nc(C5(c6ccccc6)CC5)[nH]c(=O)c4C3)c2)c1 [49-49] | < 50 nM | < 10 nM
18 | O=C([C@H](O)c1cccc(-c2cccc(F)c2)c1)N1CCCc2nc(C3(c4cccc(Cl)c4)CC3)[nH]c(=O)c2C1 [50-6] | < 50 nM | < 3 nM
19 | O=C([C@H](O)c1cccc(C(F)(F)F)c1)N1CCCc2nc(C3(c4cccc(C5CCCCC5)c4)CC3)[nH]c(=O)c2C1 [17-25] | < 50 nM | < 10 nM
20 | O=C([C@H](O)c1cccc(-c2cccc(F)c2)c1)N1CCCc2nc(C3(c4cccc(C5CCCCC5)c4)CC3)[nH]c(=O)c2C1 [52-1] | < 50 nM | < 10 nM
21 | O=C(C(O)c1cccc(SC(F)(F)F)c1)N1CCc2nc(C3(c4cccs4)CC3)[nH]c(=O)c2C1 (stereo not shown) [15-12] | < 50 nM | 

Row | Compound | IC50 [1] | IC50 [2]
22 | O=C(C(O)c1cccc(-c2cccc(F)c2)n1)N1CCc2nc(C3(c4ccccc4)CC3)[nH]c(=O)c2C1 (stereo not shown) [48-10] | < 50 nM | 
23 | O=C(c1csc(C2(c3nc4c(c(=O)[nH]3)CN(C(=O)[C@H](O)c3cccc(C(F)(F)F)c3)CCC4)CC2)c1)N(Cc1ccccc1)Cc1ccccc1 [59-12] | < 50 nM | < 10 nM
24 | O=C(C(O)c1cccc(-c2cccc(OC(F)(F)F)c2)n1)N1CCc2nc(C3(c4ccccc4)CC3)[nH]c(=O)c2C1 (stereo not shown) [48-2] | < 50 nM | < 10 nM
25 | CC(C)Oc1cccc(-c2cccc([C@@H](O)C(=O)N3CCCc4nc(C5(c6ccccc6)CC5)[nH]c(=O)c4C3)c2)c1 [49-45] | < 50 nM | < 3 nM
26 | O=C(C(O)c1cccc(-c2cccc(C(F)(F)F)c2)c1)N1CCc2nc(C3(c4cccs4)CC3)[nH]c(=O)c2C1 (stereo not shown) [15-6] | < 50 nM | < 10 nM
27 | O=C(C(O)c1cccc(-c2cccc(C(F)(F)F)c2)c1)N1CCCc2c(nc(C3(c4ccccc4)CC3)[nH]c2=O)C1 (stereo not shown) [17-74] | < 50 nM | < 10 nM
28 | O=C([C@H](O)c1cccc(C(F)(F)F)c1)N1CCCc2nc(C3(c4cccc(-c5ccc(F)cc5)c4)CC3)[nH]c(=O)c2C1 [42-59] | < 50 nM | < 10 nM
29 | O=C([C@H](O)c1cccc(C(F)(F)F)c1)N1CCCc2nc(C3(c4cccc(-c5cc6ccccc6s5)c4)CC3)[nH]c(=O)c2C1 [42-29] | < 50 nM | < 10 nM
30 | O=C([C@H](O)c1cccc(-c2cccc(Cl)c2)c1)N1CCCc2nc(C3(c4ccccc4)CC3)[nH]c(=O)c2C1 [49-15] | < 50 nM | < 3 nM
31 | Cc1cc(Cl)cc(-c2cccc([C@@H](O)C(=O)N3CCc4nc(C5(c6ccccc6)CC5)[nH]c(=O)c4C3)c2)c1 [44-96] | < 50 nM | < 10 nM
32 | O=C(C(O)c1cccc(C2CC2)c1)N1CCc2nc(C3(c4cccc(Cl)c4)CC3)[nH]c(=O)c2C1 (stereo not shown) [14-15] | < 50 nM | 
33 | CC(C)c1cccc(C2(c3nc4c(c(=O)[nH]3)CN(C(=O)C(O)c3cccc(S(F)(F)(F)(F)F)c3)CCC4)CC2)c1 (stereo not shown) [17-39] | < 50 nM | < 10 nM
34 | O=C(Cc1cccc(-c2cccc(Cl)c2)c1)N1CCCc2nc(C3(c4cccc(-c5csc6ccccc56)c4)CC3)[nH]c(=O)c2C1 [17-123] | < 50 nM | < 10 nM
35 | O=C([C@H](O)c1cccc(Cl)c1)N1CCc2nc(C3(c4cccc(-c5cnsc5)c4)CC3)[nH]c(=O)c2C1 [34-2] | < 50 nM | < 10 nM
36 | O=C([C@H](O)c1cccc(C(F)(F)F)c1)N1CCc2nc(C3(c4cc(-c5ccccc5)cs4)CC3)[nH]c(=O)c2C1 [36-1] | < 50 nM | < 10 nM
37 | O=C([C@H](O)c1cccc(-c2cc(Cl)cc(OC(F)(F)F)c2)c1)N1CCc2nc(C3(c4cccc(Cl)c4)CC3)[nH]c(=O)c2C1 [45-11] | < 50 nM | < 10 nM
38 | O=C([C@H](O)c1cccc(C(F)(F)F)c1)N1CCc2nc(C3(c4cc(C5CCCCCC5)cs4)CC3)[nH]c(=O)c2C1 [15-3] | < 50 nM | < 3 nM
39 | O=C([C@H](O)c1cccc(Cl)c1)N1CCc2nc(C3(c4cc(C5CCCC5)cs4)CC3)[nH]c(=O)c2C1 [23-2] | < 50 nM | < 10 nM
40 | O=C(C(O)c1cccc(-c2cnc3ccccc3c2)c1)N1CCCc2nc(C3(c4cccc(Cl)c4)CC3)[nH]c(=O)c2C1 (stereo not shown) [17-19] | < 50 nM | < 10 nM
41 | CC(C(=O)N1CCCc2nc(C3(c4cccc(Cl)c4)CC3)[nH]c(=O)c2C1)c1cccc(C(F)(F)F)c1 (stereo not shown) [17-88] | < 50 nM | < 10 nM
42 | O=C(C(O)c1cccc(S(F)(F)(F)(F)F)c1)N1CCc2nc(C3(c4ccccc4)CC3)[nH]c(=O)c2C1 (stereo not shown) [14-31] | < 50 nM | 
